Test results from ChEMBL document CHEMBL5113476, “The protective effects of natural product tunicatachalcone against neuroinflammation via targeting RIPK2 in microglia BV-2 cells stimulated by LPS” (Bioorg Med Chem, 2022).
Activity calls are given as the source filed them. The calls are words filed in the database; no cut-off is given here.

Key:
BV-2 [1] = experiment: Cytotoxicity against mouse BV-2 cells at 12.5 to 50 uM measured after 24 hrs by MTT assay; type: toxicity, cell-based; conditions: bv-2, 24 h, dose 12.5-50 µM
BV-2 [2] = experiment: Anti-neuroinflammatory activity in mouse BV-2 cells assessed as inhibition of LPS-induced NO production at 5 to 20 uM measured after 24 hrs; type: functional, cell-based; conditions: dose 5-20 µM, DDE = dose-dependent effect
BV-2 [3] = experiment: Anti-neuroinflammatory activity in mouse BV-2 cells assessed as reduction in LPS-stimulated IL-6 production at 5 to 20 uM measured after 8 hrs by ELISA; type: functional, cell-based; conditions: dose 5-20 µM, DDE = dose-dependent effect
BV-2 [4] = experiment: Anti-neuroinflammatory activity in mouse BV-2 cells assessed as reduction in LPS-stimulated TNF-alpha production at 5 to 20 uM measured after 4 hrs by ELISA; type: functional, cell-based; conditions: dose 5-20 µM, DDE = dose-dependent effect
[5] = molecular target: T1, Receptor-interacting serine/threonine-protein kinase 2 (Homo sapiens, UniProt O43353); experiment: Binding affinity to recombinant RIPK2 (unknown origin) measured by surface plasmon resonance analysis
T1 sequence (O43353 whole entry): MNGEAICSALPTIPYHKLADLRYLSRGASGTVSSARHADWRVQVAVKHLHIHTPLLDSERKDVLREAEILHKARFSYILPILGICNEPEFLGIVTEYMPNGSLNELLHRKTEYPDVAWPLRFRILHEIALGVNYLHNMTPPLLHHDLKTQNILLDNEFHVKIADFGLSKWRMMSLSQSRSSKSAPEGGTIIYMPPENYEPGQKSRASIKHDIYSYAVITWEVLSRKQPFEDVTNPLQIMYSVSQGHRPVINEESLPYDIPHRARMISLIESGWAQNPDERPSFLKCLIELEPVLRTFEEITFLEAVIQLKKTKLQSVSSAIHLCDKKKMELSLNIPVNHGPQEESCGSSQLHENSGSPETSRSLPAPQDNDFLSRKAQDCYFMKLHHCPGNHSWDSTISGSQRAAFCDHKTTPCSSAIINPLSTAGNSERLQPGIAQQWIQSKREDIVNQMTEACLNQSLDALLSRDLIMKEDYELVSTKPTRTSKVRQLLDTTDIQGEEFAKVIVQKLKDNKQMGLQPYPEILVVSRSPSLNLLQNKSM

[6] = molecular target: T1, Receptor-interacting serine/threonine-protein kinase 2; experiment: Binding affinity to recombinant RIPK2 (unknown origin) measured by microscale thermophoresis (MST) assay
[7] = molecular target: Receptor-interacting serine/threonine-protein kinase 2 (Mus musculus) (UniProt P58801); experiment: Binding affinity to RIPK2 in mouse BV-2 cells measured by Cellular thermal shift assay (CETSA); type: cell-based
Chain of Receptor-interacting serine/threonine-protein kinase 2 (Mus musculus) (P58801 whole entry): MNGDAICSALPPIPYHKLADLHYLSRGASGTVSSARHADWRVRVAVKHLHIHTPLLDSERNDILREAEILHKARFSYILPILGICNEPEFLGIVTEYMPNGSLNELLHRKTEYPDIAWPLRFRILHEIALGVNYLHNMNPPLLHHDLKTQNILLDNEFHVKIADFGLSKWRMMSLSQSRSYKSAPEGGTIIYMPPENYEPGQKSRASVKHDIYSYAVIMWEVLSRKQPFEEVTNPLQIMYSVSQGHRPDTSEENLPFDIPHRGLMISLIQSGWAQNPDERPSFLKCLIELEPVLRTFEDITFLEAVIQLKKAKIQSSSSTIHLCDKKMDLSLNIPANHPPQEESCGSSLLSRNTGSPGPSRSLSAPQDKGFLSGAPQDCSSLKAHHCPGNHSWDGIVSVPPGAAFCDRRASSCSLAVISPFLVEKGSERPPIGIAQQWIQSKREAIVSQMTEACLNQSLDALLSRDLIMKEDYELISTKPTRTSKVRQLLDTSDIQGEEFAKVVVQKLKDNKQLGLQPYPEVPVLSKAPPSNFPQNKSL

For COC1=CC(=O)C(CC=C(C)C)(CC=C(C)C)C(=O)/C1=C(O)/C=C/c1ccccc1, the Activity (BV-2 [1]) was “Non-Toxic”, the Activity (BV-2 [2]) was “Dde” and the Activity (BV-2 [3]) was “Dde”. The Activity (BV-2 [4]) was “Dde”, the Kd [5] was 5.36 µM and the Kd [6] was 1 µM. For the same compound, the Activity [7] was “Active”.
